“Also recorded” adds a separate entry of the source.
Experiments:
Sirt1 knockout mice = test: Partial hepatectomy in Sirt1 knockout mice and littermate controls, with NR; type: in vivo, mouse
Method: Partial hepatectomy: 10-14 week old male transgenic mice underwent partial hepatectomy (PHx) according to the protocol of Mitchell and Willenbring between 8 AM and noon. Briefly, after isofluorane anesthesia, a ventral midline incision was made. Then the median and left lateral lobes, comprising 70% of the liver, were resected by pedicle ligation. For EdU (5-ethynyl-2′-deoxyuridine) labeling (Molecular probes), mice were injected intraperitoneally with the labeling reagent at a dose of 16 mg/kg, 5 h before sacrifice. Animals were sacrificed at 36 h or 48 h after PHx, as indicated. The resected and regenerating livers were snap frozen in liquid nitrogen, fixed in 4% paraformaldehyde, embedded in OCT medium (Tissue-TEK O.C.T compound, Sakura), or rapidly frozen in pre-chilled metal clamps in liquid nitrogen for NAD and ATP assays. All surgical procedures involving mice were approved by the Institutional Animal Care and Use Committee protocols of the University of Pennsylvania. Histology, Immunohistochemistry, and Immunofluoresence: Mitotic figures were counted in Hematoxylin and eosin stained slides. Paraffin embedded liver sections of 5 μm thickness were deparaffinized in Xylene followed by rehydration through a graded ethanol series were stained with Gill 3 hematoxylin (Thermo Scientific) and eosin (Sigma). Mitotically active areas were first screened under lower magnification. For quantification, total mitotic counts in 10 high power fields (40×) in the most mitotically active areas were considered. Representative photomicrographs were taken at 400× magnification using a light microscope coupled with a digital image acquisition system. For immunofluorescent detection of Nampt expression in paraffin sections, antigens were retrieved in R-buffer (Electron Microscopy Sciences Ct #62706-10) followed by quenching and blocking in Cas-Block (Invitrogen 00-8120) for 20 min. Slides were then incubated overnight at 4° C. in humidified chamber with primary rabbit polyclonal anti-NAMPT antibody (Bethyl Laboratories, dilution 1:1000). Goat anti-rabbit IgG (Alexa Fluor 488) was used as secondary antibody at dilution of 1:600 and slides were counter-stained with DAPI (Vector laboratories). For quantification, cells were examined and imaged using a Zeiss Axioplan 2 imaging system under a 20× objective taking both the central and portal venous areas. Studies were performed to determine the ability of NR to improve liver regeneration in the context of Sirt1 deletion, which impairs this process. Sirt1 knockouts and littermate controls were treated with NR (500 mgs/Kg/day) for 2 weeks prior to partial hepatectomy (PHx). […] In another assay, liver regeneration during the first 36 hour post PHx was compromised in Sirt1 knockout mice and restored by NR treatment. […]

wild-type C57BL/6J mice = test: 2/3 partial hepatectomy (PHx) liver regeneration model, NR in the drinking water; type: in vivo, mouse
Excerpt: (§1) Animals, housing and drug treatment: Mice overexpressing Nampt in hepatocytes were obtained by crossing animals carrying an exogenous copy of the Nampt cDNA separated from the CAGGS promoter by a foxed stop cassette that were backcrossed to the C57BL/6J background (as described previously^7), with mice carrying Albumin-Cre (JAX strain B6.Cg-Tg(Alb-cre)21Mgn/J, stock number 003574). Littermates lacking Albumin Cre were used as controls. For studies on the adult onset of Nampt overexpression, 8-9 week old male Nampt^fl/fl and Nampt^wt/wt mice were injected with adeno-associated virus in the retroorbital plexus expressing either Cre recombinase (AAV-Cre) or enhanced green fluorescent protein (AAV-Gfp) under the control of thyroxine-binding globulin (Tbg) promoter (AAV-Cre). Nampt^fl/fl mice injected with AAV-Gfp and Namp^wt/wt injected with AAV-Cre served as controls. For inducible deletion of Nampt, mice originally created by Oberdan Leo at Université de Liège and backcrossed to the C57/BL6 background were employed and generously provided by Shin-Ichiro Imai at Washington University. As above, 8-9 week old male mice bearing two floxed alleles were injected retroorbitally with adeno-associated virus expressing either Cre recombinase (AAV-Cre) or enhanced green fluorescent protein (AAV-Gfp) under the control of thyroxine-binding globulin (Tbg) promoter. Fasting blood glucose was measured and partial hepatectomies were performed at >14 days after AAV infection in both the adult onset overexpression and liver-specific knock out cohorts. Animals were housed in groups of 4-5 mice/cage in pathogen-free barrier facility in a 12 h light-dark cycle with free access to food and water. For experiments containing only wild type animals, male C57BL/6J mice were ordered directly from Jackson Labs. For nicotinamide riboside (NR) (Chromadex Inc.) supplementation experiments, NR was dissolved in the drinking water at 3.0 mg/ml in light-protected bottles and was changed every 3 days. For fasting and re-feeding experiments, animals were fasted for 16 h with access to water ad libitum in cages containing Alpha-dri bedding. All animal work was performed in accordance with the U.S. Department of Health and Human Services Guide for the Care and Use of Laboratory Animals and with the approval of the University of Pennsylvania Institutional Animal Care and Use Committee.
(§2) Partial hepatectomy: 10-14 week old male transgenic mice underwent partial hepatectomy (PHx) according to the protocol of Mitchell and Willenbring between 8 AM and noon. Briefly, after isofluorane anesthesia, a ventral midline incision was made. Then the median and left lateral lobes, comprising 70% of the liver, were resected by pedicle ligation. For EdU (5-ethynyl-2′-deoxyuridine) labeling (Molecular probes), mice were injected intraperitoneally with the labeling reagent at a dose of 16 mg/kg, 5 h before sacrifice. Animals were sacrificed at 36 h or 48 h after PHx, as indicated. The resected and regenerating livers were snap frozen in liquid nitrogen, fixed in 4% paraformaldehyde, embedded in OCT medium (Tissue-TEK O.C.T compound, Sakura), or rapidly frozen in pre-chilled metal clamps in liquid nitrogen for NAD and ATP assays. All surgical procedures involving mice were approved by the Institutional Animal Care and Use Committee protocols of the University of Pennsylvania.
(§3) Histology, Immunohistochemistry, and Immunofluoresence: Mitotic figures were counted in Hematoxylin and eosin stained slides. Paraffin embedded liver sections of 5 μm thickness were deparaffinized in Xylene followed by rehydration through a graded ethanol series were stained with Gill 3 hematoxylin (Thermo Scientific) and eosin (Sigma). Mitotically active areas were first screened under lower magnification. For quantification, total mitotic counts in 10 high power fields (40×) in the most mitotically active areas were considered. […]

[1] = test system: hepatocyte-specific Nampt deficient mice; test: Partial hepatectomy in hepatocyte-specific Nampt deficient mice (AAV-Cre) and AAV-Gfp littermate controls, with NR; type: in vivo, mouse; settings: for Liver regeneration (EdU positive hepatocytes, liver to body weight ratio): first 48 hours after PHx, NR ~500 mg/kg/day
Excerpt: as §1, §2, §3

hepatocyte = settings: cited from earlier work
[2] = Sirt1 deficient mice, NR 500 mgs/Kg/day for 2 weeks prior to PHx
[3] = NR ~500 mg/kg, 48 hours post PHx

NC(=O)c1ccc[n+]([C@@H]2O[C@H](CO)[C@@H](O)[C@H]2O)c1 [NR, nicotinamide riboside]
Acute hepatic steatosis phenotype (H&E sections) (Sirt1 knockout mice; [2]): partially rescued
Hepatic fatty changes (Sirt1 knockout mice; [2]): attenuated
Liver regeneration during the first 36 hour post PHx (Sirt1 knockout mice; Sirt1 knockout mice): restored
Size of the regenerated livers compared to untreated livers (Sirt1 knockout mice; both wild type and Sirt1 knockout mice, 36 hour post PHx): increase
Increase of liver NAD content, pre hepatectomy (wild-type C57BL/6J mice; NR 3 mg/mL in drinking water (~500 mg/kg) for 14 days, pre PHx, vs control mice): ~35%
Increase of liver NAD content, post hepatectomy (wild-type C57BL/6J mice; NR 3 mg/mL in drinking water (~500 mg/kg) from 14 days before PHx, 48 hours post PHx, vs control mice): ~58%
Liver ATP levels (wild-type C57BL/6J mice; NR treated mice, pre or post hepatectomy, regenerating livers): enhanced
Fatty changes (hepatic steatosis, micro and macro vesicular lipid droplets, hepatic triglyceride accumulation) (wild-type C57BL/6J mice; [3]): almost completely absent; also recorded: not evident
Hepatocyte proliferation (incorporation of EdU into DNA) (wild-type C57BL/6J mice; [3]): greatly enhanced
Liver mass (liver to body weight ratio) after PHx (wild-type C57BL/6J mice; [3]): significant improvement
Macroscopic appearance of regenerating livers (wild-type C57BL/6J mice; NR ~500 mg/kg, 48 hours post PHx, control livers pale, mottled): more uniformly colored
Increase in mitotic activity (mitotic figures, H&E stained sections) (wild-type C57BL/6J mice; NR ~500 mg/kg, 48 hours post PHx, vs control): 48%
Hepatic steatosis at 36 hours post-PHx (wild-type C57BL/6J mice; NR-treated mice, 36 hours post-PHx): Some steatosis was visible
Mitotic index ([1]; Nampt KO mice, 48 hours after PHx): largely restored
Liver regeneration (EdU positive hepatocytes, liver to body weight ratio) ([1]; Nampt KO mice): restored
Liver regeneration (EdU positive hepatocytes, liver to body weight ratio) ([1]; Nampt KO mice, listed as nicotinamide riboside): completely rescued
Reduction of hepatic triglycerides with NR treatment ([1]; Nampt fl/fl AAV-Cre mice, 48 hours after PHx): ~35%
Petechial hemorrhage / pale regenerated livers (macroscopic) ([1]; Nampt fl/fl AAV-Cre mice, NR ~500 mg/kg/day 2 weeks prior to PHx, 48 hours): prevented
Hepatic fatty changes in NAMPT deficient regenerating livers (histology) ([1]; Nampt fl/fl AAV-Cre, 48 hours after PHx): nearly normalized
Reduction of hepatic triglycerides with NR treatment ([1]; Nampt fl/fl AAV-Gfp mice, 48 hours after PHx): 75%
Liver NAD content ([1]; both genotypes (AAV-Gfp and AAV-Cre), before and after PHx): effectively increased
Hepatic lipid accumulation in regenerating wild type livers (histology) ([1]; wild type (AAV-Gfp control) livers, 48 hours after PHx): abolished

Oc1ccc(/C=C/c2cc(O)cc(O)c2)cc1 [resveratrol]
Hepatocyte replication (hepatocyte): slow
Hepatocyte survival in injury models (hepatocyte): improve

Reference: patent publication US11559522B2, “Methods for enhancing liver regeneration” (The Trustees of the University of Pennsylvania, priority 2016, dated 2023)
